Measurements taken from paper PMC7594025, “Synthesis, Docking, 3-D-Qsar, and Biological Assays of Novel Indole Derivatives Targeting Serotonin Transporter, Dopamine D2 Receptor, and Mao-A Enzyme: In the Pursuit for Potential Multitarget Directed Ligands” (Molecules, 2020).

Tests used:
[1] = target: T1, rat MAO-A (Rattus norvegicus, UniProt P21396); assay: MAO-A inhibition, crude rat brain mitochondrial suspension, serotonin substrate, HPLC-ED; format: biochemical; details: 100 µM compound; serotonin 100 µM as substrate
T1 construct: using a crude rat brain mitochondrial suspension as a source of enzyme; from tissue; host or cells: rat brain (crude mitochondrial suspension)
T1 sequence (P21396 1-526): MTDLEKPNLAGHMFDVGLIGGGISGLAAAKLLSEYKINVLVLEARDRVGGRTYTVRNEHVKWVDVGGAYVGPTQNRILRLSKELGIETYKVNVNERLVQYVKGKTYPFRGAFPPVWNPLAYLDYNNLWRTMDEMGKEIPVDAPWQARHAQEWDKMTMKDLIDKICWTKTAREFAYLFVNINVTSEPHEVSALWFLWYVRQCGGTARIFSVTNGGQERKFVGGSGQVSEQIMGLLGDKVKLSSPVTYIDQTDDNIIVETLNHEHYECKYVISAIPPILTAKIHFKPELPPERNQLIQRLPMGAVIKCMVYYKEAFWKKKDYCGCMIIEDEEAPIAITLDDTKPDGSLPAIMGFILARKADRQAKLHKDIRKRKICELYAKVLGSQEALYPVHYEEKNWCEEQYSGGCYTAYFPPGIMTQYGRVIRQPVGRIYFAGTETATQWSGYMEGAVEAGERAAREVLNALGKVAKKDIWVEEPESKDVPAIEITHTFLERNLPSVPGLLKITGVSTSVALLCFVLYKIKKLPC
Method: The effects of the compounds on rat MAO-A activity were studied following a previously reported methodology, using a crude rat brain mitochondrial suspension as a source of enzyme. Serotonin (100 µM) was used as the selective substrate for MAO-A. This compound and its metabolite were detected by HPLC with electrochemical detection. As an exploratory evaluation, the percentage of MAO-A inhibition in the presence of 100 µM of the different compounds was determined, with the idea of evaluating in detail those compounds showing an inhibitory activity in the range of 70–100%.

[2] = target: T2, D2 receptor (Homo sapiens, UniProt P14416); assay: D2 receptor competitive binding assay, [3H]-methylspiperone, membranes from CHO-K1 clonal cell line overexpressing D2 receptor; details: 0.5 nM [3H]-methylspiperone, 2 h at 27 °C; mean ± SEM of three experiments, each in triplicate
T2 construct: purchased Perkin-Elmer (Boston, MA, USA) RBHD2CM400UA; host or cells: CHO-K1 clonal cell line
T2 sequence (P14416 whole entry): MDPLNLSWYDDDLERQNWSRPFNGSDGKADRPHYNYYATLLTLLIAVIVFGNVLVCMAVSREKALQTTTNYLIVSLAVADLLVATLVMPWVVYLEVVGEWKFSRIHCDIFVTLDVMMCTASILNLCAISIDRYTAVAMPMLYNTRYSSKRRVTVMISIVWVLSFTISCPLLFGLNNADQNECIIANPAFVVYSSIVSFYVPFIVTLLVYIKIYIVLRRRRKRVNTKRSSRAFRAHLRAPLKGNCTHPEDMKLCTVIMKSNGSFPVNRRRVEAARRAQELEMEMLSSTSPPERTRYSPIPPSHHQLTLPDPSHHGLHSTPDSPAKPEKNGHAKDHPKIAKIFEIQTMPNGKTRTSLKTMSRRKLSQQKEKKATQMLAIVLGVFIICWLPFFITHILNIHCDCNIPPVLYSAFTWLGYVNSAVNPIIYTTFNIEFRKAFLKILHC
Method: To determine the binding of all compounds at D2 receptor, competitive binding assays were performed according to provider indications with some modifications. […] Radioactivity was counted as described before.

[3] = target: T3, SERT (Homo sapiens, UniProt P31645); assay: SERT competitive binding assay, [3H]-paroxetine, membranes from HEK-293 clonal cell line overexpressing SERT; details: 2 nM [3H]-paroxetine, 1 h at 27 °C; mean ± SEM of three experiments, each in triplicate; read-out: Ki SERT
T3 construct: purchased Perkin-Elmer (Boston, MA, USA) RBHSTM400UA; host or cells: HEK-293 clonal cell line
T3 sequence (P31645 whole entry): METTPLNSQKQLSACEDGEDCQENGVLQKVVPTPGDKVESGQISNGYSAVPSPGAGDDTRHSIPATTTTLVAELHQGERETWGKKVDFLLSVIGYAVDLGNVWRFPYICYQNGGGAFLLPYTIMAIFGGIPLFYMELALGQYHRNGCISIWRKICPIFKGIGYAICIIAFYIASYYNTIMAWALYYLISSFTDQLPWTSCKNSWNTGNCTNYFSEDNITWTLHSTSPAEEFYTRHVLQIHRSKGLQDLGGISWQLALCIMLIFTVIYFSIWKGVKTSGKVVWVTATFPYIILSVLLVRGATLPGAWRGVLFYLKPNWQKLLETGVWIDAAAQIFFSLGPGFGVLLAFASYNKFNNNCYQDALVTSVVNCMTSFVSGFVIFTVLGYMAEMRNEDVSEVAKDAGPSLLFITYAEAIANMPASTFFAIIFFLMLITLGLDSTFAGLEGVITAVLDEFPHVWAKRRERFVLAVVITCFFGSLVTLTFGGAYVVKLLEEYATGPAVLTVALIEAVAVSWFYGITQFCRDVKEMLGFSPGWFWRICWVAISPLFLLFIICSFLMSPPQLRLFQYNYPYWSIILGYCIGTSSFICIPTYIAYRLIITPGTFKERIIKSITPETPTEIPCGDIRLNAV
Method: To determine the binding of all compounds at SERT, competitive binding assays were performed according to previously reported procedures with some modifications. […] Control curve was performed with fluoxetine in the same experimental conditions. Non-specific binding was determined with 10 µM fluoxetine.
The IC50 and Ki values correspond to the results of three independent experiments, each in triplicate. All data are expressed as the mean ± SEM.

inhibition at 100 µM [1] | melting point | Ki [2] | Ki [3] | Structure (SMILES)
9.4% | 73.8 to 74.7 °C | 4700 ± 168 nM | 200 ± 14.5 nM | O=C(CN1CCN(CCCc2c[nH]c3ccc(Br)cc23)CC1)Nc1ccc(F)cc1C(=O)NCCN1CCOCC1 [Compound 13h, 5-Fluoro-2-(2-{4-[3-(5-bromo-1H-3-indolyl)-propyl]-1-piperazinyl}-acetylamino)-N-(2-morpholin-4-yl-ethyl) Benzamide]
34% | 69.7 to 71.5 °C | 4170 ± 335 nM | 26.8 ± 0.91 nM | O=C(CN1CCN(CCCc2c[nH]c3ccccc23)CC1)Nc1ccc(F)c(C(=O)NCCN2CCOCC2)c1 [Compound 13k, 2-Fluoro-5-(2-{4-[3-(1H-3-indolyl)-propyl]-1-piperazinyl}-acetylamino)-N-(2-morpholin-4-yl-ethyl) Benzamide]
34% | 68.1 to 69.6 °C | 2000 ± 34 nM | 52.2 ± 3.24 nM | O=C(CN1CCN(CCCc2c[nH]c3ccccc23)CC1)Nc1ccc(F)cc1C(=O)NCCN1CCOCC1 [Compound 13l, 5-Fluoro-2-(2-{4-[3-(1H-3-indolyl)-propyl]-1-piperazinyl}-acetylamino)-N-(2-morpholin-4-yl-ethyl) Benzamide]
